Assay results from patent publication US6716836B2, “Non-nucleoside reverse transcriptase inhibitors” (Boehringer Ingelheim (Canada) Ltd., priority 2001, dated 2004).
pEC50, pIC50: −log10 of the molar value.

Key:
HIV-1 RT wild type (WT) = target: T1, HIV-1 RT wild type (WT) (Human immunodeficiency virus type 1 group M subtype B, UniProt P04585); test: Reverse Transcriptase (RT) assay, wild type enzyme; assay type: biochemical
T1 construct: Heterodimeric RT was eluted using a descending gradient; made in house; host or cells: E. coli
Source text: (§1) Among the enzymes for which Human Immunodeficiency Virus (HIV-1) encodes is a reverse transcriptase (1), so-named because it transcribes a DNA copy from an RNA template. This activity can be quantitatively measured in a cell-free enzyme assay, which has been previously described (2), and is based upon the observation that reverse transcriptase is able to use a synthetic template poly r(C) primed with oligo d(G) to transcribe a radio-labelled, acid-precipitable DNA strand utilising ^3H-dGTP as a substrate. The assay described below utilises the wild type (WT) enzyme, which is the predominant form of the enzyme observed with patients infected with HIV-1. Utilisation of mutant RT enzymes (for example, Y181C, prepared by site-directed mutagenesis in which the tyrosine residue at codon 181 has been replaced by a cysteine residue, or the mutants K103N, V106A and Y188C) and analogous assay conditions allows compounds to be evaluated for their effectiveness at inhibiting the mutant enzymes.
(§2) The HIV-1 RT expression clone, pKRT2, was obtained from Yale University (3). An overnight culture, grown in 2×YT medium (37° C., 225 rpm) (4), supplemented with 100 μg/mL ampicillin for positive selection was used to inoculate the 2×YT medium. The culture was incubated (37° C., 225 rpm) until it reached an OD600 of 0.6-0.9. At that time, the repressor inhibitor IPTG (isopropyl P-D-thiogalactopyranoside) was added to 0.5 mM, and the mixture was incubated for an additional 2 hours.
(§3) Purification of recombinant reverse transcriptase was performed using a combination of methods previously described (5). This procedure is summarised briefly as follows: E. Coli containing RT-1 wt or RT-1 (Y181 C) were suspended in 50 mM MES, pH 6.0 containing 10% glycerol, lysed in a French press, centrifuged, and the supernates discarded. Lysate pellets were extracted with buffer A (50 mM MES, pH 6.0, 100 mM KCl, 50 mM KPi, 10% glycerol, 0.02% hexyl-β-glucoside), and re-centrifuged; nucleic acid in supernates was precipitated with 0.1% polyethylenimine. […] Bound RT was eluted with a gradient of 0 to 1.0M
(§4) (NH4)2 SO4 in buffer B. Heparin-Sepharose fractions containing RT were concentrated (Amicon YM-30 membrane), combined with equal volumes of 2.0M (NH4)2SO4 in buffer B and injected onto a 21.5×150 mm TSK Phenyl-5PW HIC HPLC column (Phenomenex). Heterodimeric RT was eluted using a descending gradient of 1.0M to 0M (NH4)2SO4 in buffer B, concentrated, and stored at 4° C.
(§5) The 2.4× concentrated stock reaction mixture was aliquoted and stored at −20° C. The mixture is stable and can be thawed for use in each assay. This enzyme assay has been adapted to a 96 well microtiter plate system, and has been previously described (6). Tris buffer (50 mM, pH 7.8), vehicle (solvent diluted to match the compound dilution), or compounds in vehicle were dispensed into 96-well microtiter plates (10 μL/well; 3 wells/compound). The HIV-1 RT enzyme was thawed, diluted in 50 mM Tris pH 7.8 containing 0.05% Chaps to give 1.5 nM enzyme and 25 μL were dispensed per well. Ten μL of 0.5M EDTA were added to the first three wells of the microtiter plate. EDTA chelates the Mg^2+ present and prevents reverse transcription. This group served as background polymerisation, which was subtracted, from all other groups. Twenty-five μl of the 2.4× reaction mixture was added to all wells and the assay was allowed to incubate at room temperature for 30 minutes. The assay was terminated by precipitating the DNA in each well with 60 μL of sodium pyrophosphate (2% w/v) in 10% trichloroacetic acid (TCA) (10% w/v). The microtiter plate was incubated for 15 minutes at 4° C. and the precipitate was harvested onto #30 glass fibre paper (Schleicher & Schuell) using a Tomtech 96-well harvester. The filters were dried, placed in plastic bags with Betaplate scintillation cocktail (Pharmacia/LKB) and counted in the Betaplate counter (Pharmacia/LKB).
(§6) The calculation for percent inhibition is as follows: [formula] […]

[1] = target: T2, HIV-1 RT double mutant K103N/Y181C (Human immunodeficiency virus type 1 group M subtype B, UniProt P04585, K690N/Y768C); test: Reverse Transcriptase (RT) assay, double mutant enzyme; assay type: biochemical
T2 construct: Heterodimeric RT was eluted using a descending gradient; made in house; host or cells: E. coli (inferred; the text describes only wild type and Y181C preparations)
Source text: as §1, §2, §3, §4, §5, §6

[2] = test system: HIV replication in T-lymphocytes, virus coding for mutant enzyme K103N/Y181C; test: ELISA (p24) assay for activity in cell culture, mutant virus; assay type: cell-based; settings: Human immunodeficiency virus 1, T-lymphocyte, read-out: EC50 K103N/Y181C
Procedure: (§7) ELISA Assay for Assessment of Activity in Cell Culture
(§8) Compounds of the invention were tested for their ability to inhibit HIV replication in cell culture. Viruses coding for Wild type and mutant enzymes were used. T-lymphocytes were infected with the virus, infected cells were incubated in the presence of varying amounts of compounds of the invention, and an ELISA assay for the viral protein p24 was used to quantify viral replication. Table 9 lists the results as EC50 (nM).

[3] = test system: HIV replication in T-lymphocytes, virus coding for wild type enzyme; test: ELISA (p24) assay for activity in cell culture, wild type virus; assay type: cell-based; settings: Human immunodeficiency virus 1, T-lymphocyte, read-out: EC50 WT RT
Procedure: as §7, §8

SMILES | pIC50 (HIV-1 RT wild type (WT)) | pIC50 [1] | pEC50 [2] | pEC50 [3]
CCN1c2ncc(CCOc3cccc4c3CS(=O)(=O)N4)cc2C(=O)N(C)c2cccnc21 [Compound 101] | > 7.00 | 6.00 to 7.00 | > 7.00 | 
CCN1c2ncc(CCOc3cccc4c3CS(=O)(=O)N4)cc2C(=O)N(C)c2ccc(F)nc21 [Compound 103] | > 7.00 | 6.00 to 7.00 | > 7.00 | > 7.00
CCN1c2ncc(CCOc3cccc4c3CS(=O)(=O)N4)cc2C(=O)Nc2c(C)cc(F)nc21 [Compound 110] | > 7.00 | 6.00 to 7.00 | > 7.00 | > 7.00
CCN1c2ncc(CCOc3cccc4c3CS(=O)(=O)N4C)cc2C(=O)Nc2c(C)cc(C)nc21 [Compound 117] | > 7.00 | > 7.00 |  | > 7.00
CCN1c2ncc(CCOc3cccc4c3CS(=O)(=O)N4CC(=O)O)cc2C(=O)N(C)c2cccnc21 [Compound 127] | > 7.00 | 6.00 to 7.00 | 6.00 to 7.00 | > 7.00
CCN1c2ncc(CCOc3cccc4c3CS(=O)(=O)N4CCO)cc2C(=O)N(C)c2cccnc21 [Compound 129] | > 7.00 | > 7.00 | > 7.00 | > 7.00
CCN1c2ncc(CCOc3cccc4c3CS(=O)(=O)N4Cc3cc[n+]([O-])cc3)cc2C(=O)N(C)c2cccnc21 [Compound 130] | > 7.00 | > 7.00 | > 7.00 | > 7.00
CCN1c2ncc(CCOc3cccc4c3CS(=O)(=O)N4Cc3cccnc3)cc2C(=O)N(C)c2cccnc21 [Compound 131] | > 7.00 | > 7.00 | > 7.00 | > 7.00
CCN1c2ncc(CCOc3cccc4c3CS(=O)(=O)N4Cc3ccc[n+]([O-])c3)cc2C(=O)N(C)c2cccnc21 [Compound 132] | > 7.00 | > 7.00 | > 7.00 | > 7.00
CCN1c2ncc(CCOc3cccc4c3CS(=O)(=O)N4Cc3cc[n+]([O-])cc3)cc2C(=O)Nc2c(C)ccnc21 [Compound 136] | > 7.00 | > 7.00 | > 7.00 | > 7.00
CCN1c2ncc(CCOc3cccc4c3CS(=O)(=O)N4Cc3ccc[n+]([O-])c3)cc2C(=O)Nc2c(C)ccnc21 [Compound 137] | > 7.00 | > 7.00 | > 7.00 | > 7.00
CCN1c2ncc(CCOc3cccc4c3CS(=O)(=O)N4CC(C)C(=O)O)cc2C(=O)N(C)c2cccnc21 (centres unmarked) [Compound 138] | > 7.00 | > 7.00 | > 7.00 | > 7.00
CCN1c2ncc(CCOc3cccc4c3CS(=O)(=O)N4CC(=O)Nc3cc[n+]([O-])cc3)cc2C(=O)N(C)c2cccnc21 [Compound 141] | > 7.00 | > 7.00 | > 7.00 | > 7.00
CCN1c2ncc(CCOc3cccc4c3CS(=O)(=O)N4CC(=O)Nc3cc[n+]([O-])cc3)cc2C(=O)Nc2c(C)cc(Cl)nc21 [Compound 147] | > 7.00 | > 7.00 | > 7.00 | > 7.00
CCN1c2ncc(CCOc3cccc4c3CNS4(=O)=O)cc2C(=O)N(C)c2cccnc21 [Compound 202] | > 7.00 | > 7.00 | > 7.00 | > 7.00
CCN1c2ncc(CCOc3cccc4c3CNS4(=O)=O)cc2C(=O)Nc2c(C)cc(F)nc21 [Compound 223] | > 7.00 | > 7.00 | > 7.00 | > 7.00
CCN1c2ncc(CCOc3ccc4c(c3)C(C)(C)NS4(=O)=O)cc2C(=O)Nc2c(C)ccnc21 [Compound 311] | > 7.00 | 6.00 to 7.00 | > 7.00 | > 7.00

SMILES | pIC50 (HIV-1 RT wild type (WT)) | pIC50 [1] | pEC50 [2] | pEC50 [3]
CCN1c2ncc(CCOc3cccc4c3CCS(=O)(=O)N4)cc2C(=O)N(C)c2cccnc21 [Compound 601] | > 7.00 | > 7.00 | > 7.00 | > 7.00
CCN1c2ncc(CCOc3cccc4c3CCS(=O)(=O)N4)cc2C(=O)Nc2c(C)cc(F)nc21 [Compound 602] | > 7.00 | > 7.00 | > 7.00 | > 7.00
CCN1c2ncc(CCOc3cccc4c3CCS(=O)(=O)N4CC(=O)OC)cc2C(=O)N(C)c2cccnc21 [Compound 616] | > 7.00 | > 7.00 | > 7.00 | > 7.00
CCN1c2ncc(CCOc3cccc4c3CCS(=O)(=O)N4C(=O)N3CCOCC3)cc2C(=O)N(C)c2cccnc21 [Compound 618] | > 7.00 | > 7.00 |  | 
CCN1c2ncc(CCOc3cccc4c3CCS(=O)(=O)N4C(=O)N3CCCC3)cc2C(=O)N(C)c2cccnc21 [Compound 619] | > 7.00 | > 7.00 |  | 
CCN1c2ncc(CCOc3cccc4c3CCS(=O)(=O)N4C(=O)N3CCN(C)CC3)cc2C(=O)N(C)c2cccnc21 [Compound 620] | > 7.00 | > 7.00 |  | 
CCN1c2ncc(CCOc3cccc4c3CCS(=O)(=O)N4Cc3csc(C)n3)cc2C(=O)N(C)c2cccnc21 [Compound 622] | > 7.00 | > 7.00 |  | 
CCN1c2ncc(CCOc3cccc4c3CCS(=O)(=O)N4CC(=O)N3CCCC3)cc2C(=O)N(C)c2cccnc21 [Compound 623] | > 7.00 | > 7.00 |  | 
CCN1c2ncc(CCOc3cccc4c3CCS(=O)(=O)N4CS(C)(=O)=O)cc2C(=O)N(C)c2cccnc21 [Compound 627] | > 7.00 | > 7.00 |  | 
CCN1c2ncc(CCOc3cccc4c3CCS(=O)(=O)N4Cc3ccc[n+]([O-])c3)cc2C(=O)N(C)c2cccnc21 [Compound 632] | > 7.00 | > 7.00 |  | 
CCN1c2ncc(CCOc3cccc4c3CCS(=O)(=O)N4CCCC(N)=O)cc2C(=O)N(C)c2cccnc21 [Compound 635] | > 7.00 | > 7.00 |  | 
CCN1c2ncc(CCOc3cccc4c3CCS(=O)(=O)N4Cc3ncc[nH]3)cc2C(=O)N(C)c2cccnc21 [Compound 642] | > 7.00 | > 7.00 |  | 
CCN1c2ncc(CCOc3cccc4c3CCNS4(=O)=O)cc2C(=O)N(C)c2cccnc21 [Compound 712] | > 7.00 | > 7.00 |  | 
CCN1c2ncccc2NC(=O)c2cc(CCOc3cccc4c3C=CS(=O)(=O)N4C)cnc21 [Compound 805] | > 7.00 | 6.00 to 7.00 |  | 
CCN1C(=O)c2cc(CCOc3cccc4c3C=CS(=O)(=O)N4C)cnc2N(CC)c2ncccc21 [Compound 806] | > 7.00 | > 7.00 |  | 
CCN1c2ncc(CCOc3cccc4c3C=CS(=O)(=O)N4CC)cc2C(=O)N(C)c2cccnc21 [Compound 807] | > 7.00 | > 7.00 |  | 
